Measurements taken from patent US7531550B2, “Pseudobase benzo[c]phenanthridines with improved efficacy, stability, and safety” (Yale University, priority 2006, dated 2009).

What was measured:
Assay type in all cases: physicochemical
[1] = Conversion to chelerythrine in 0.1N HCL with 30% methanol; conditions: then 30% methanol added
Excerpt: (§1) The quaternary nitrogen imparts inherent chemical reactivity into these alkaloids. Nucleophiles can readily add to the adjacent carbon to create a neutral pseudobase. Water forms an unstable adduct with chelerythrine that can be seen in NMR studies. Additionally, 6-methoxy-5,6-dihydrochelerytherine and 6-ethoxy-5,6-dihydrochelerytherine (Artarine) have been reported as byproducts formed during the isolation of chelerythrine from plants utilizing methanol and ethanol extractions. The ability of this class of compounds to form pseudobases which can convert back to the quartenary […] is dependent on the solubility of the resulting pseudobase in biological media, the basicity of the leaving group adjacent to the position to become quartenary and the aromatic substitution pattern and nature of substituting agents (electron donating or withdrawing). Sanguinarine forms the hydroxyl psuedobase in pH 7.4 water to a higher extent than Chelerythrine. Under basic aqueous conditions, the hydroxypsuedobase of Cheleryturine will dimerize forming an ether bridge between two Chelerythrine molecules attached to the carbon adjacent to the ring nitrogen.

[2] = Conversion of chelerythrine pseudobases to parent chelerythrine in simulated gastric fluid (SGF); conditions: for conversion to chelerythrine chloride (1H NMR analysis): 1 mg in 5 mL, 37° C.
Method: Simulated Gastric Fluid (SGF): Sodium chloride (2 gm), 750 mL distilled water, and 7.0 mL of concentrated hydrochloric acid are added into a 1000 ml volumetric flask. The flask is swirled to mix and the volume brought to 1000 mL with distilled water. The pH should be approx. 1.2.
(§2) General conversion procedure: The pseudobases are placed in SGF or SIF at about 0.2 mg/mL concentration and placed in 37° C. bath with gentle stirring. For those pseudobases which have low aqueous solubility, up to 20% co-solvent such as methanol is added to facilitate dissolution. The progress of the conversion is followed by visual observation (color change) and ^1H NMR analysis.
6-tert-Butoxy-5,6-dihydrochelerythrine (1 mg) is placed in 5 mL of simulated gastric fluid in a glass vial. The vial is gently placed in 37° C. bath with gentle stirring. The solid pseudobase gradually dissolves to give a yellow solution which is the characteristic color of the parent chelerythrine chloride.
6-Diethyl-(5,6-dihydrochelerythrine)-malonate (1 mg) is placed in 5 mL of simulated gastric fluid in a glass vial containing 10% methanol. The vial is gently placed in 37° C. bath with gentle stirring. The solid pseudobase gradually dissolves to give a yellow solution which is the characteristic color of the parent chelerythrine chloride.

[3] = Solubility of the chelerythrine ether dimer
Excerpt: as §1

[4] = Conversion of chelerythrine pseudobases to parent chelerythrine in simulated intestinal fluid (SIF); conditions: 1 mg in 5 mL, 37° C., after 4 h
Method: Simulated Intestinal Fluid (SIF): Monobasic potassium phosphate (6.8 gm) and sodium hydroxide (0.616 gm) are added into 250 ml of distilled water in a 1000 ml volumetric flask and swirled until dissolved. 700 ml distilled water is added and the pH checked. The pH is adjusted to pH 6.8+/−0.1 by adding either 0.2N sodium hydroxide or 0.2N hydrochloric acid and the volume is brought to 1000 ml.
as §2
N-(isopropyl)-5,6-dihydrochelerythrine-6-amine (1 mg) is placed in 5 mL of simulated intestinal fluid in a glass vial. The vial is gently placed in 37° C. bath with gentle stirring. The solid pseudobase gradually dissolved to give a yellow solution which is the characteristic color of the parent chelerythrine chloride.

In the case of `COc1ccc2c(c1OC)C(OC1c3c(ccc(OC)c3OC)-c3ccc4cc5c(cc4c3N1C)OCO5)N(C)c1c-2ccc2cc3c(cc12)OCO3` (stereo not drawn) [compound 34, 6-(5,6-dihydrochelerytherin-6-yloxy)-5,6-dihydrochelerytherine], the “conversion to Chelerythrine” value [1] is reported as “occurs rapidly”, the “conversion to Chelerythrine in simulated gastric fluids” value ([2]; simulated gastric fluids) is reported as “does not convert readily” and the solubility [3] is reported as “quite insoluble”.

For `COc1ccc2c(c1OC)C(OC(C)(C)C)N(C)c1c-2ccc2cc3c(cc12)OCO3` (stereo not drawn) [compound 37, 6-tert-butoxy-5,6-dihydrochelerytherine], the “conversion to chelerythrine chloride (1H NMR analysis)” value (“conversion to chelerythrine chloride” below) ([2]; simulated gastric fluid, after 2 h) was “complete conversion”.

In the case of `COc1ccc2c(c1OC)C(NC(C)C)N(C)c1c-2ccc2cc3c(cc12)OCO3` (stereo not drawn) [compound 43, N-(isopropyl)-5,6-dihydrochelerythrine-6-amine], the “conversion to chelerythrine chloride” value [4] is reported as “complete conversion”.

With `CCOC(=O)C(C(=O)OCC)C1c2c(ccc(OC)c2OC)-c2ccc3cc4c(cc3c2N1C)OCO4` (stereo not drawn) [compound 50, 6-diethyl-(5,6-dihydrochelerythrine)-malonate] the “conversion to chelerythrine chloride” value ([2]; simulated gastric fluid containing 10% methanol, after 16 h) was “complete conversion”.
